The test deals with T1, mTAS1R2-WT/mTAS1R3-WT (Mus musculus, UniProt Q925D8+Q925I4).
T1 construct: expressed in transfected cells; host or cells: HEK293T-Gα16gust44
T1 sequence (Q925I4 20-843): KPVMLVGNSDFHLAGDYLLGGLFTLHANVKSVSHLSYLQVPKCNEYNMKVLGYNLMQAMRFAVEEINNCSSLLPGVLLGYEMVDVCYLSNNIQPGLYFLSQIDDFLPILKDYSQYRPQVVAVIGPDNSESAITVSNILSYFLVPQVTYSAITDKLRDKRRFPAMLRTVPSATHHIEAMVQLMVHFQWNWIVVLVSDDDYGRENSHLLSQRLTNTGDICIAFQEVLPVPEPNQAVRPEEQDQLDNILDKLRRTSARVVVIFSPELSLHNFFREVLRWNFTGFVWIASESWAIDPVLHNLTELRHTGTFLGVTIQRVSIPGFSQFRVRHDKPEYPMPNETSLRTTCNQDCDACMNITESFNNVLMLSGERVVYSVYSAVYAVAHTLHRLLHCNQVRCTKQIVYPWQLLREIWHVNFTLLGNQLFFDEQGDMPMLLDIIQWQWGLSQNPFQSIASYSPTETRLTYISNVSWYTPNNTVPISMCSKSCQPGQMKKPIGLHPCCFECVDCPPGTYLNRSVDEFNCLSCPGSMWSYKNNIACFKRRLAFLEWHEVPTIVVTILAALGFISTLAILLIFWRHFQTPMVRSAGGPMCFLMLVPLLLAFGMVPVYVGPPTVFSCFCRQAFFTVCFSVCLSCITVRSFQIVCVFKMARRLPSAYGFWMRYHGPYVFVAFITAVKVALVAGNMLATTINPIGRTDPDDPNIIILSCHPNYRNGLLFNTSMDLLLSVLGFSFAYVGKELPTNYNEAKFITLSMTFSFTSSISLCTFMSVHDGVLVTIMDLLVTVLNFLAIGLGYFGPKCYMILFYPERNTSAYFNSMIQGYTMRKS
T1 sequence (Q925D8 21-858): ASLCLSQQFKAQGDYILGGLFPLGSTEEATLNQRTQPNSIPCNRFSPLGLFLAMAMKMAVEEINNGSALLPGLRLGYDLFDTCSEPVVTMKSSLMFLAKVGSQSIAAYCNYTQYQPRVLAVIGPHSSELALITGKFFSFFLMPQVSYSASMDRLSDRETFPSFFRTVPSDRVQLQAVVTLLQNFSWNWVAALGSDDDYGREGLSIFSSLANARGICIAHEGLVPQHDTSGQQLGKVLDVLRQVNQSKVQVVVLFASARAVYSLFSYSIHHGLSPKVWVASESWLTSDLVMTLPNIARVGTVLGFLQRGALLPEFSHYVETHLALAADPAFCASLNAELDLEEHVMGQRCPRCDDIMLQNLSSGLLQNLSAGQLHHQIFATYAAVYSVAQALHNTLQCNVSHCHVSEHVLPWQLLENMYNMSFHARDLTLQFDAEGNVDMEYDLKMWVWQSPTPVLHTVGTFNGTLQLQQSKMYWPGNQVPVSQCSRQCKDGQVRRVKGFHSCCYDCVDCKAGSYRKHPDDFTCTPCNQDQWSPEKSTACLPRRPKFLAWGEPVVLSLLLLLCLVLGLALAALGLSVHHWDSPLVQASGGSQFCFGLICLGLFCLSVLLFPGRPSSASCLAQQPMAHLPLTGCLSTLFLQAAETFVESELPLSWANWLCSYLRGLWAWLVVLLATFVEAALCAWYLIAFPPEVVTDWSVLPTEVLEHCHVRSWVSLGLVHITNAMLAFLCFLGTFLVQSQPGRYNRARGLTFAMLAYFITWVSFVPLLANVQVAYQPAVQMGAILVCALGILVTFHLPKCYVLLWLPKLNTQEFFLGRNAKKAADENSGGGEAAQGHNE
The experiment in a line: Calcium mobilisation assay, HEK293T-Gα16gust44 cells, mouse sweet taste receptor WT. The class given is cell-based. The following applies: for EC50 / Max ΔF/F0: mTAS1R2-WT + mTAS1R3-WT, "-": no activation; for Max ΔF/F0: maximal signal amplitude; for activation of the mouse sweet taste receptor: result in words. The procedure: The HEK293T cells were kindly provided by Jay P. Slack (Givaudan Flavors Corporation; Cincinnati, OH, USA). HEK293T cells stably transfected with Gα16gust44 [43, 67] were seeded in poly-D-lysine-coated clear-bottom black 96-well plates (0.35 × 10^5 cells/well) in high-glucose DMEM supplemented with 2 mM GlutaMAX, 10% dialysed foetal bovine serum with penicillin/streptomycin and G418 (400 μg/mL) at 37 °C and 6.3% CO2 in a humidified atmosphere as previously reported. […] As a negative control, HEK293T cells were mock-transfected with the empty expression vector. After a further 24 h of incubation, the HEK293T cells were washed with C1 buffer (130 mM NaCl, 5 mM KCl, 10 mM HEPES pH 7.4 and 2 mM CaCl2). The 96-well plates containing the cells were then stimulated with sweet-tasting compounds. […] Different concentration ranges were tested depending on the sweet compound injected. The Ca^2+ changes were expressed as fractional changes in fluorescent light intensity: ΔF/F = (F − F0)/F0, where F was the fluorescent light intensity at each point, and F0 was the value of emitted fluorescent light prior to stimulus application. To calculate dose–response relationships, the changes in fluorescence upon stimulus application were averaged, mock-subtracted and baseline-corrected. The dose–response data obtained were adjusted using a 4-parameter logistic equation. The half-maximal effective concentrations (EC50 values) and maximal signal amplitudes were calculated using SigmaPlot software (version 15.0) (Systat Software; San Jose, CA, USA).
HEK293T-Gα16gust44 cells were transiently cotransfected with pcDNA6-MAX-mTAS1R2-FLAG, pcDNA4-MAX-mTAS1R3-WT-FLAG or pcDNA4-MAX-mTAS1R3-I60T-FLAG, and pCMV-GCaMP5G as previously described in detail. After 24 h, the cells were washed with C1 buffer and stimulated with a logarithmically increasing range of sweetener concentrations. Calcium responses during automated application were monitored using a FlexStation®3 Multi-Mode microplate reader. The dose–response curves, EC50 values and maximal signal amplitudes were calculated as previously described.
For in vitro calcium mobilisation assay performed on hTAS1R2-SNPs, hTAS1R3-SNPs and mTAS1R3-I60T, 6 to 7 concentrations were tested for each sweet compound, plus buffer alone. All concentration–receptor combinations were measured in duplicate, and each experiment was repeated at least 4 times (8 wells/concentration). Results were expressed for each concentration as ΔF/F mean ± SEM and represented as dose–response curves.
(Calcium flux is commonly read through the fluorescence of an indicator in the cells.)

No end group written: not given here.

The term EC50 denotes the concentration that produces a half-maximal response.

For the compound `CC1=CC(=O)NS(=O)(=O)O1` [Acesulfame K, acesulfame K], the EC50 is 439 ± 10 µM and the “Max ΔF/F0” value is 1.63 ± 0.02. As for `O=S(=O)(O)NC1CCCCC1` [Cyclamate, cyclamate], the “activation of the mouse sweet taste receptor” value (shortened to “activation”) is reported as “not activated”. On to `C[C@H](CC[C@@H](O[C@@H]1O[C@H](CO[C@@H]2O[C@H](CO)[C@@H](O)[C@H](O)[C@H]2O)[C@@H](O)[C@H](O)[C@H]1O[C@@H]1O[C@H](CO)[C@@H](O)[C@H](O)[C@H]1O)C(C)(C)O)[C@H]1CC[C@@]2(C)[C@@H]3CC=C4[C@@H](CC[C@H](O[C@@H]5O[C@H](CO[C@@H]6O[C@H](CO)[C@@H](O)[C@H](O)[C@H]6O)[C@@H](O)[C@H](O)[C@H]5O)C4(C)C)[C@]3(C)[C@H](O)C[C@]12C` [Mogroside V, mogroside V], for which the EC50 turned out to be 133 ± 6 µM and the “Max ΔF/F0” value is recorded as 0.84 ± 0.02. Regarding `COc1ccc(CCC(=O)c2c(O)cc(O[C@@H]3O[C@H](CO)[C@@H](O)[C@H](O)[C@H]3O[C@@H]3O[C@@H](C)[C@H](O)[C@@H](O)[C@H]3O)cc2O)cc1O` [NHDC, neohesperidin dihydrochalcone], the “activation” value is listed as “not activated”. As to `COC(=O)[C@H](Cc1ccccc1)NC(=O)[C@H](CC(=O)O)NCCC(C)(C)C` [Neotame], the “activation” value is reported as “not activated”.

With `C=C(C)[C@@H]1CC=C(/C=N/O)CC1` [Perillartine, perillartine], the “activation” value is on record as “not activated”. As for `C=C1C[C@@]23CC[C@H]4[C@@](C)(CCC[C@@]4(C)C(=O)O[C@@H]4O[C@H](CO)[C@@H](O)[C@H](O[C@@H]5O[C@H](CO)[C@@H](O)[C@H](O)[C@H]5O)[C@H]4O[C@@H]4O[C@H](CO)[C@@H](O)[C@H](O)[C@H]4O)[C@@H]2CC[C@]1(O[C@@H]1O[C@H](CO)[C@@H](O)[C@H](O[C@@H]2O[C@H](CO)[C@@H](O)[C@H](O)[C@H]2O)[C@H]1O[C@@H]1O[C@H](CO)[C@@H](O)[C@H](O)[C@H]1O)C3` [Rebaudioside M, rebaudioside M], the EC50 is 44 ± 4 µM and the “Max ΔF/F0” value was found to be 1.41 ± 0.05. For `OC[C@H]1O[C@H](O[C@]2(CCl)O[C@H](CCl)[C@@H](O)[C@@H]2O)[C@H](O)[C@@H](O)[C@H]1Cl` [Sucralose] the same measures were 778 ± 22 µM and 2.03 ± 0.02. “brazzein (QDKCKKVYENYPVSKCQLANQCNYDCKLDKHARSGECFYDEKRNLQCICDYCEY; ends and bridges not checked; cysteine pairing not given here; UniProt P56552 1-54, looked up) [sweet-tasting protein obtained by recombinant production using the yeast Pichia pastoris]”: the “activation” value is “not activated”. With thaumatin, the “activation” value is on record as “not activated”.
